“And” between values parts separate entries of the source, which are not always exact repeats. Equal entries are not always repeated.
Assays:
[1] = biological target: purified Jack Bean urease (Canavalia ensiformis, UniProt P07374); test: Aqueous system (pH stat) urease inhibition test; format: biochemical; settings: 25° C
Method: (§1) Embodiment 1: Urease activity of inhibitor test compounds may be evaluated either in aqueous or in soil systems. When aqueous systems are used, urea plus a test compound with possible urease inhibition activity and relatively pure urease enzyme are incubated together to determine the effects of the test compound on urease-catalyzed hydrolysis of urea. When soil systems are used, urea and the test compound are added to moist soil, and the urease enzyme is supplied from the soil. The main disadvantage of using soil systems is that the true activity of test compounds may be masked because of reactions between the test compound and soil. Thus, basic studies for understanding chemical structure-activity relationships are usually done in aqueous systems.
Aqueous System (pH Stat) Test Procedure: The aqueous system urease inhibition tests were conducted at 25° C using purified Jack Bean urease enzyme, 50,000-80,000 units per gram, a unit of urease will liberate 1 umole of NH3 from urea per minute at pH 7.0 at 25° C.
An appropriate amount of inhibitor [such as 37.0 uL (microliters) of a 1.169×10^(-3) M (moles/liter) inhibitor solution] and 100 uL of a solution of 13.9130 mg Jack Bean urease enzyme in 10.00 mL of water were diluted to 25.00 mL. This combined solution was allowed to sit undisturbed at 23° C. for twenty (20) minutes. Then 20.0 uL of a preservative solution was added to prevent degradation of the urease enzyme during the course of the experiment. The preservative solution contained 5.655×10^-4 moles/liter ethylenediaminetetraacetic acid (disodium salt) and 1.166×10^-3) moles/liter dithiothreitol.
Immediately after the addition of the preservative solution to the inhibitor/urease solution, 800 uL of a 0.1246 M urea solution was added and a computer assisted titrimeter was started. This titrimeter maintained a constant pH of 6.97 during the course of the experiment by neutralizing the ammonia (resulting from urease hydrolysis of urea) with 0.01142 M hydrochloric acid (HCl). The volume (measured to 0.001 mL) of HCl added was automatically recorded every 15 seconds for up to 20.0 minutes or until a total volume of 2.500 mL of HCl was added.
Experiments also were conducted without inhibitor (blank) and with the inhibitor PPDA for comparison. The experiments were replicated, and the percent inhibition for each of the inhibitors at the various concentrations was calculated as follows:
% inhibition=(kinhibitor /kblank)×100 (4)
where kinhibitor and kblank are the average rates of HCl addition for the inhibitor and blank experiments, respectively. The rates of HCl addition were calculated by linear regression of the titration curves.

[2] = tested on: nitrification of ammonium nitrogen in soil; test: Soil nitrification inhibition test (Mountainview silt loam, banded); settings: for % inhibition (nitrification) / Net mg NO2N / Net mg NO3N: 25° C, 410 mg urea + 41 mg inhibitor
Method: Embodiment 2: The N-Halamine compounds were tested for nitrification inhibition using the soil testing procedure described below.
Mountainview silt loam soil was screened through a 2 mm sieve. Plexiglas containers (8×8×6 cm) were packed half full with the soil and packed to a bulk density of 1.0 g/cm^3 and wetted to field capacity (approximately 20 weight percent moisture). The urea 410 mg per container) and inhibitor (41 mg per container) were added in a narrow band (0.5 cm wide X 6 cm long), and additional soil was added to fill the containers. The total amount of dry soil added was 384 g. The containers were incubated at 25° C. During incubation the containers were checked periodically for moisture loss and additional water added as needed to maintain moisture levels.
The individual containers were removed from the incubator at 1, 2, 3, 4, and 5 week intervals. After removal from the incubator the contents of the container were transferred to a plastic bag and thoroughly mixed. A 10-g sample of soil (dry basis) was taken from the bag and extracted with 100 ml of 2 N KCL. The extract was filtered through Whatman #41 filter paper and refrigerated until analyzed. Samples were analyzed for NO3-N- NO2-N- and urea-N using a colorimetric procedure. Some samples also were analyzed for NH4-N.
The percent nitrification inhibition was calculated according to the method of Bundy and Bremner [G. L. Bundy and J. M. Bremner, Soil Sci. Soc. Am. Proc. 37, 396-398 (1973)]
% nitrification inhibition=[(C-S)/C]×100
where C=net amount of NO3-N produced in the control (no inhibitor added), and S=net amount of NO3-N produced in the inhibitor treated sample.
^a Concentrations are in net mg/container. All containers had 384 g
soil (dry), 410 mg urea (188.6 mg N) and 41 mg inhibitor. Samples were
extracted 10 g → 100 mls 2N KCl. The formulas used for calculation
where C = net NO3N produced in control (no inhibitor), S = net
NO3N produced in inhibitor treated sample, net NO3N =
(NO3N) - (soil NO3N), and net NO2N = (NO2N) - (soil
NO2N). Values are averages of two replicate samples.

[3] = tested on: soil urease (urease-active Hastings silt loam soil); test: Banded soil system urease inhibition test (Hastings silt loam); settings: 410 mg urea + 41 mg inhibitor
Method: as §1
Soil System Test Procedure: The soil system test procedure used was a modification of the previous procedures of other researchers L. A. Douglas and J. M. Bremner, Soil Biol. Biochem. 3, 309-315 (1971) and J. M. Bremner and R. L. Mulvaney, "Urease Activity in Soils," Soil Enzymes 5, R. G. Burns, editor, Academic Press, 149-195 (1978)]. In this modified procedure powdered mixtures of urea and test compounds were applied in narrow bands in the soil rather than being mixed throughout the soil. The banded configuration also results in concentration gradients of urea, urea hydrolysis products, test compounds, and test compound decomposition products similar to those in the immediate vicinity of urea granules containing the test compounds. Another advantage of the banded configuration compared with mixing throughout the soil is that slightly soluble test compounds can be easily band applied, whereas it is difficult to achieve a known degree of mixing of a small quantity of slightly soluble test compound with soil. The banded configuration also enables testing for urease inhibition under realistic soil conditions prior to the development of techniques for cogranulating a wide range of test compounds with urea.
A detailed description of the banded soil testing procedure follows. Urease-active soil (Hastings silt loam) was moistened to a moisture content of 20 percent dry weight basis) and preincubated at room temperature for two days. Plexiglas containers (6×6×6 cm) were half filled with soil and packed to a bulk density of 1.0 g/cm . Urea (410 mg) or urea (410 mg) plus inhibitor (41 mg, thoroughly mixed with the urea) was distributed in a narrow band about 0.5 cm wide and 6 cm long on the soil surface. The containers then were filled with soil, again packing to a bulk density of 1.0 g/cm^3. The containers were incubated at 25° C. for the desired reaction period, after which the containers were frozen to about -5° C. to stop urea hydrolysis. Immediately prior to extracting the remaining urea from the soil, said soil was allowed to thaw. Soil from each container was thoroughly mixed, and a 10-g sample was extracted with 100 ml of 2 M KCl containing phenylmercuric acetate to prevent urea hydrolysis during handling [L. A. Douglas and J. M. Bremner, Soil. Sci. Soc. Am. Proc. 34, 859-862 (1970)]. Urea in the extracts was determined colorimetrically as a measure of unhydrolyzed urea and the results expressed as percent unhydrolyzed urea-N.
^a The plexiglas containers measured 6 × 6 × 6 cm.
Hastings silt loam soil was utilized and packed to a bulk density of 1
gm/cm^3 dry basis. The soil was wet to near field capacity (20%
moisture) and 260 g of wetted soil (216 g dry soil) was added per
container. The containers were packed half full, urea and inhibitor were
added, and the remaining soil was added. The amount of urea added = 410 m

Chain of purified Jack Bean urease (P07374 whole entry, looked up): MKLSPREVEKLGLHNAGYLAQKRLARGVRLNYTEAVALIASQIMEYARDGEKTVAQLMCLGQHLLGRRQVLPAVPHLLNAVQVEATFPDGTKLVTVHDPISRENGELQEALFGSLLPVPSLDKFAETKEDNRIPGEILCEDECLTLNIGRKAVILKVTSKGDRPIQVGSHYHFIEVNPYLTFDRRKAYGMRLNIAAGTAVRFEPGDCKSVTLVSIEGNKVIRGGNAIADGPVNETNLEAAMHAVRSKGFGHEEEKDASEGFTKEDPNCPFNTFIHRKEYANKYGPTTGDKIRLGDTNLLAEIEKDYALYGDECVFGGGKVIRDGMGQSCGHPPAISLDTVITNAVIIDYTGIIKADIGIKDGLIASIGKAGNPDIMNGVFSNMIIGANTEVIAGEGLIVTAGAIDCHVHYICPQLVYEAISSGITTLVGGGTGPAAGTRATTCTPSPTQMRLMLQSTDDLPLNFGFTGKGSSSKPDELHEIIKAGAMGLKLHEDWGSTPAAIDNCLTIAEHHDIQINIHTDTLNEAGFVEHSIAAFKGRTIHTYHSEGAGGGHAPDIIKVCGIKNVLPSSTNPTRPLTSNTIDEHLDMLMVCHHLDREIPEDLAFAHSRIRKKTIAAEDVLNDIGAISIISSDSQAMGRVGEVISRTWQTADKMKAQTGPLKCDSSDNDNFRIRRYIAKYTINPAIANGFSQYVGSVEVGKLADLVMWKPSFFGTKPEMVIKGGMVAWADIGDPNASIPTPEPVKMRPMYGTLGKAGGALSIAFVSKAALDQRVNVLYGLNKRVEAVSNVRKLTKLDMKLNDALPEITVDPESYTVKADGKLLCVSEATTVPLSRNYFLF

**Q.** Which “% urease inhibition” value ([1]; inhibitor 0.432 x 10^-8 moles/experiment) does the source give for `CC1(C)N(Cl)C(=O)N(Br)C1(C)C` [ABC, 1-bromo-3-chloro-4,4,5,5-tetramethyl-2-imidazolidinone] here?
**A.** 93%

**Q.** What about the “% urease inhibition” value ([1]; inhibitor 1.430 x 10^-8 moles/experiment) of the same molecule?
**A.** 100%

**Q.** What about the “% inhibition (nitrification)” value ([2]; 1 week) of the same molecule?
**A.** 100.0%

**Q.** What about the “Net mg NO2N” value ([2]; 1 week) of the same molecule?
**A.** -0.05 mg/container

**Q.** What about the “Net mg NO3N” value ([2]; 1 week) of the same molecule?
**A.** 0.0 mg/container

**Q.** And the “% inhibition (nitrification)” value ([2]; 2 weeks)?
**A.** 100.0%

**Q.** And the “Net mg NO2N” value ([2]; 2 weeks)?
**A.** 0.04 mg/container

**Q.** What about the “Net mg NO3N” value ([2]; 2 weeks) of the same molecule?
**A.** 0.0 mg/container

**Q.** What about the “% inhibition (nitrification)” value ([2]; 3 weeks) of the same molecule?
**A.** 100.0%

**Q.** What about the “Net mg NO2N” value ([2]; 3 weeks) of the same molecule?
**A.** 0.08 mg/container

**Q.** What about the “Net mg NO3N” value ([2]; 3 weeks) of the same molecule?
**A.** 0.0 mg/container

**Q.** And the “% inhibition (nitrification)” value ([2]; 4 weeks)?
**A.** 100.0%

**Q.** And the “Net mg NO2N” value ([2]; 4 weeks)?
**A.** 1.68 mg/container

**Q.** What about the “Net mg NO3N” value ([2]; 4 weeks) of the same molecule?
**A.** 0.0 mg/container

**Q.** And the “% inhibition (nitrification)” value ([2]; 5 weeks)?
**A.** 99.6%

**Q.** What about the “Net mg NO2N” value ([2]; 5 weeks) of the same molecule?
**A.** 1.67 mg/container

**Q.** And the “Net mg NO3N” value ([2]; 5 weeks)?
**A.** 0.8 mg/container

**Q.** And the “Nitrite accumulation in the soil” value ([2]; during the 5 weeks incubation, greater than with dicyandiamide)?
**A.** well within plant tolerance levels

**Q.** What about the percent nitrification inhibition ([2]; separate experiment (Examples VII, IX): sampled only at end of 5-week incubation, no dicyandiamide comparison) of the same molecule?
**A.** 85.6%

**Q.** And the “% unhydrolyzed urea-N” value ([3]; 3 days incubation at 25° C)?
**A.** 84.71% and 84.7%

**Q.** What about the “PPM urea-N” value ([3]; 3 days incubation at 25° C) of the same molecule?
**A.** 75.0 PPM

**Q.** What about the “% unhydrolyzed urea-N” value ([3]; 6 days incubation at 25° C) of the same molecule?
**A.** 53.65% and 53.7%

**Q.** What about the “PPM urea-N” value ([3]; 6 days incubation at 25° C) of the same molecule?
**A.** 47.5 PPM
